Test results reported in article PMC12191028, “Preparation of Nanoparticle-Immobilized Gold Surfaces for the Reversible Conjugation of Neurotensin Peptide” (Biomolecules, 2025).

Legend:
[1] = molecular target: high-affinity receptor (NTSR2); conditions: binding affinity to its high-affinity receptor (NTSR2) according to the literature; ref [69]; cited from earlier work
[2] = molecular target: NTSR2 antibody; assay: NTSR2 antibody–NTS(8–13) peptide binding affinity by microscale thermophoresis (MST); conditions: Monolith NT.115 Pico, RED-NHS-labeled NTSR2 antibody 20 nM, PBS with 0.005% Tween-20, 20 min dark incubation, 16 serial dilutions from 0.5 mg/mL, free peptide in solution, n = 3, read-out: dissociation constant (Kd)
Description: An RED-NHS 2nd generation protein labeling kit and Monolith NT.115 premium capillaries were obtained from NanoTemper Technologies (Munich, Germany). The binding affinity of the NTSR2 antibody–NTS(8–13) peptide interaction was evaluated using microscale thermophoresis (MST) with Monolith NT.115 Pico instrument (NanoTemper Technologies, Munich, Germany). The NTSR2 antibody was labeled with the Monolith protein labeling kit and RED-NHS 2nd generation kit and used as a target molecule in PBS with 0.005% Tween-20. Experiments were conducted using the Monolith NT.115 premium capillariesat Pico-RED 80% excitation power and medium MST power with thermophoresis. For the labeled NTSR2 antibody, a concentration of 20 nM was used, whereas for the NTS(8–13) peptide, 16 serial dilutions were prepared starting from 0.5 mg/mL. Dark incubation was performed for 20 min after mixing the target and ligand molecule. Triplicate results were analyzed using the M.O. affinity analysisv.2.3 software.

Substance: RRPYIL [NTS(8–13), fragment of the neurotensin peptide (RRPYIL)]
- Kd [1]: 0.005 to 0.007 µM
- Kd [2]: 32.9 µM
